Inconclusive results and toxic doses are left out. No stated cut-off is given here; in the data, active means T/C of 150% or more; inactive means T/C below 125%.
Test system: L1210 leukemia ip in BDF1 mice, survival T/C
Experiment: NCI In Vivo Anticancer Drug Screen. Data for tumor model L1210 Leukemia (intraperitoneal) in B6D2F1 (BDF1) mice
Details: endpoint: mean survival time, higher = longer survival
Method in brief: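 Tumor was transplanted into mice, which were then dosed with test compound or vehicle alone. Survival was recorded for each group, and the treated figure was expressed relative to the control figure.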

[1] = dose: 100.0 mg/kg/injection, schedule: Q04DX002 (ip), vehicle: saline with Tween-80
[2] = dose: 200.0 mg/kg/injection, schedule: Q04DX002 (ip), vehicle: saline with Tween-80
[3] = dose: 400.0 mg/kg/injection, schedule: Q04DX002 (ip), vehicle: saline with Tween-80
[4] = dose: 100.0 mg/kg/injection, schedule: Q01DX001 (ip), vehicle: saline
[5] = dose: 200.0 mg/kg/injection, schedule: Q01DX001 (ip), vehicle: saline
[6] = dose: 400.0 mg/kg/injection, schedule: Q01DX001 (ip), vehicle: saline
[7] = dose: 100.0 mg/kg/injection, schedule: Q04DX003 (ip), vehicle: saline
[8] = dose: 200.0 mg/kg/injection, schedule: Q04DX003 (ip), vehicle: saline
[9] = dose: 400.0 mg/kg/injection, schedule: Q04DX003 (ip), vehicle: saline
[10] = dose: 100.0 mg/kg/injection, schedule: Q01DX009 (ip), vehicle: Klucel (hydroxypropylcellulose) (HPC)
[11] = dose: 200.0 mg/kg/injection, schedule: Q01DX009 (ip), vehicle: Klucel (hydroxypropylcellulose) (HPC)
[12] = dose: 50.0 mg/kg/injection, schedule: Q01DX009 (ip), vehicle: Klucel (hydroxypropylcellulose) (HPC)
[13] = dose: 100.0 mg/kg/injection, schedule: Q04DX003 (ip), vehicle: Klucel (hydroxypropylcellulose) (HPC)
[14] = dose: 200.0 mg/kg/injection, schedule: Q04DX003 (ip), vehicle: Klucel (hydroxypropylcellulose) (HPC)
[15] = dose: 400.0 mg/kg/injection, schedule: Q04DX003 (ip), vehicle: Klucel (hydroxypropylcellulose) (HPC)
[16] = dose: 400.0 mg/kg/injection, schedule: Q01DX009 (ip), vehicle: Klucel (hydroxypropylcellulose) (HPC)
[17] = dose: 50.0 mg/kg/injection, schedule: Q01DX001 (ip), vehicle: saline
[18] = dose: 100.0 mg/kg/injection, schedule: Q04DX003 (ip), vehicle: saline with Tween-80
[19] = dose: 200.0 mg/kg/injection, schedule: Q04DX003 (ip), vehicle: saline with Tween-80
[20] = dose: 400.0 mg/kg/injection, schedule: Q04DX003 (ip), vehicle: saline with Tween-80

Measured: T/C

COC(=O)c1ccccc1N(C)C(=O)c1cc(OC)c(OC)c(OC)c1
inactive: [1] 108 % of control | [2] 94 % of control | [3] 91 % of control

C1=C(c2ccccc2)CCN(C2(c3ccccc3)CCCCC2)C1
inactive: [4] 101 % of control | [5] 93 % of control | [6] 95 % of control

CCC(CO)NC1CCCCC1 (configuration not stated)
inactive: dose: 75.0 mg/kg/injection, schedule: Q01DX001 (ip), vehicle: carboxymethylcellulose (CMC) 88 % of control

CCCCOC(=O)Nc1cc(Cl)ccc1C
inactive: dose: 100.0 mg/kg/injection, schedule: Q01DX001 (ip), vehicle: gum acacia 95 % of control | dose: 200.0 mg/kg/injection, schedule: Q01DX001 (ip), vehicle: gum acacia 96 % of control | dose: 400.0 mg/kg/injection, schedule: Q01DX001 (ip), vehicle: gum acacia 98 % of control

O=C(COc1ccc(Cl)c(Cl)c1)Nc1ccc[n+](Cc2ccc(Cl)c(S(=O)(=O)F)c2)c1
inactive: [7] 106 % of control | [8] 94 % of control | [9] 105 % of control

CC(=O)c1cccc(NC(=O)Nc2ccc(F)c([N+](=O)[O-])c2)c1
inactive: [10] 95 % of control | [11] 96 % of control

COc1ccc2c(c1)c(-n1cc([N+](=O)[O-])nc1C)c(C)n2C(=O)c1ccc(Cl)cc1
inactive: [12] 97 % of control | [10] 97 % of control | [11] 93 % of control

COC(=O)CC(=O)c1ccc(OCCOc2ccc(C(C)(C)CC(C)(C)C)cc2)c([N+](=O)[O-])c1
inactive: dose: 100.0 mg/kg/injection, schedule: Q01DX009 (ip), vehicle: saline sonified 91 % of control | [13] 93 % of control | dose: 200.0 mg/kg/injection, schedule: Q01DX009 (ip), vehicle: saline sonified 96 % of control | [14] 96 % of control | dose: 400.0 mg/kg/injection, schedule: Q01DX009 (ip), vehicle: saline sonified 95 % of control | [15] 93 % of control

CCCCC(C(C)=O)C(C)C (configuration not stated)
inactive: [10] 94 % of control | [13] 100 % of control | [11] 91 % of control | [14] 96 % of control | [16] 95 % of control | [15] 92 % of control

O=[N+]([O-])c1ccc(OCCCCOc2ccccc2)c(Cl)c1
inactive: [13] 95 % of control | [14] 96 % of control | [15] 91 % of control

COC(=O)c1cn2ccc(C#N)cc2c1C(=O)OC
inactive: [1] 89 % of control | [2] 95 % of control | [3] 95 % of control

CC(C)CCCC(C)C1CCC2C3CC=C4CC(OC(=O)CCl)CCC4(C)C3CCC12C (configuration not stated)
inactive: [17] 101 % of control | [4] 95 % of control | [5] 95 % of control | [6] 101 % of control

O=C(CC(O)(C(F)(F)F)C(F)(F)F)c1cccnc1
inactive: [10] 98 % of control | [18] 101 % of control | [11] 104 % of control | [19] 103 % of control | [16] 101 % of control | [20] 103 % of control

CC1(C)CC1(F)Cl (configuration not stated)
inactive: dose: 100.0 mg/kg/injection, schedule: Q01DX001 (ip), vehicle: carboxymethylcellulose (CMC) 103 % of control | dose: 200.0 mg/kg/injection, schedule: Q01DX001 (ip), vehicle: carboxymethylcellulose (CMC) 97 % of control | dose: 400.0 mg/kg/injection, schedule: Q01DX001 (ip), vehicle: carboxymethylcellulose (CMC) 101 % of control

O=C(NNc1ccccc1)c1ccccc1
inactive: [12] 101 % of control | [10] 101 % of control | [13] 94 % of control | [7] 100 % of control | [11] 110 % of control | [14] 107 % of control | [8] 103 % of control | [15] 100 % of control | [9] 93 % of control

CCOC(=O)CCC1CCCC1CC(=O)OCC (configuration not stated)
inactive: dose: 100.0 mg/kg/injection, schedule: Q01DX001 (ip), vehicle: acetone 97 % of control | dose: 200.0 mg/kg/injection, schedule: Q01DX001 (ip), vehicle: acetone 101 % of control | dose: 400.0 mg/kg/injection, schedule: Q01DX001 (ip), vehicle: acetone 86 % of control

CN1CCCC1=Nc1ccc([N+](=O)[O-])cc1
inactive: [10] 104 % of control | [11] 108 % of control | [16] 102 % of control

C=C(C(=O)O)C(=O)O
inactive: dose: 50.0 mg/kg/injection, schedule: Q01DX009 (ip), vehicle: saline 102 % of control | dose: 100.0 mg/kg/injection, schedule: Q01DX009 (ip), vehicle: saline 116 % of control | [18] 97 % of control | dose: 200.0 mg/kg/injection, schedule: Q01DX009 (ip), vehicle: saline 100 % of control | [19] 106 % of control

COc1ccc2c(c1)CC(CN1CCC3(CC1)C(=O)N(C)CN3c1ccccc1)O2 (configuration not stated)
inactive: dose: 75.0 mg/kg/injection, schedule: Q04DX003 (ip), vehicle: Klucel (hydroxypropylcellulose) (HPC) 101 % of control | dose: 150.0 mg/kg/injection, schedule: Q04DX003 (ip), vehicle: Klucel (hydroxypropylcellulose) (HPC) 107 % of control | dose: 300.0 mg/kg/injection, schedule: Q04DX003 (ip), vehicle: Klucel (hydroxypropylcellulose) (HPC) 95 % of control

CCCCCCCCCCCCCCCC(CCCC)c1ccccc1 (configuration not stated)
inactive: dose: 100.0 mg/kg/injection, schedule: Q01DX001 (ip), vehicle: saline + alcohol 91 % of control | dose: 200.0 mg/kg/injection, schedule: Q01DX001 (ip), vehicle: saline + alcohol 100 % of control | dose: 400.0 mg/kg/injection, schedule: Q01DX001 (ip), vehicle: saline + alcohol 96 % of control

N#C/C(=C\C1CC(Br)CCC1O)C1CCC([N+](=O)[O-])CC1 (configuration not stated)
inactive: [1] 97 % of control | [2] 86 % of control

COc1ccc(/C=N/NC(=O)CNC(=O)c2ccccc2)cc1
inactive: dose: 25.0 mg/kg/injection, schedule: Q01DX009 (ip), vehicle: saline with Tween-80 93 % of control | dose: 50.0 mg/kg/injection, schedule: Q01DX009 (ip), vehicle: saline with Tween-80 95 % of control | dose: 100.0 mg/kg/injection, schedule: Q01DX009 (ip), vehicle: saline with Tween-80 91 % of control

CC(C)(C)C1(C)CN(N=O)C(=O)O1 (configuration not stated)
inactive: dose: 12.5 mg/kg/injection, schedule: Q04DX003 (ip), vehicle: Klucel (hydroxypropylcellulose) (HPC) 114 % of control | dose: 25.0 mg/kg/injection, schedule: Q04DX003 (ip), vehicle: Klucel (hydroxypropylcellulose) (HPC) 104 % of control

O=C(OC1COC(O)C(OC(=O)c2ccccc2)C1OC(=O)c1ccccc1)c1ccccc1 (configuration not stated)
inactive: dose: 100.0 mg/kg/injection, schedule: Q01DX001 (ip), vehicle: saline with Tween-80 101 % of control | dose: 200.0 mg/kg/injection, schedule: Q01DX001 (ip), vehicle: saline with Tween-80 93 % of control

C/C(=C/C(=O)O)c1cc2ccccc2n1C
inactive: [18] 100 % of control | [19] 92 % of control | [20] 96 % of control

Cc1ccc(C)c2c1c1ccccc1n2N=O
inactive: [17] 97 % of control | [4] 100 % of control | [5] 100 % of control | [6] 114 % of control

CSc1ccc(OC(=O)Nc2ccc(C)cc2[N+](=O)[O-])cc1
inactive: [12] 90 % of control | [10] 90 % of control | [13] 97 % of control | [11] 100 % of control | [14] 99 % of control | [15] 97 % of control
